What was measured:
Assay type in all cases: in vivo
[1] = tested on: neointimal lesion development in the rat carotid artery; assay: Inhibition of neointimal lesion development in the rat carotid artery (balloon catheterization test); conditions: for Maximal intimal height: mean ± SD
Method: The anti-atherogenic activity has been confirmed also by measurement of the inhibition of neointimal lesion development in the rat carotid artery (balloon catheterization test, essentially as published in A. W. Clowes et al., Lab. Invest. 49 [1983]208-215).
In a first experiment a group of 12 rats was given PN 250 μg/kg/day in 10% ethanol-water s.c. A control group of 9 animals was non-injected and a further control group of 7 animals was vehicle-injected. Animals were randomized into 3 groups for catheterization and were weighed every other day throughout the study. Rats were anesthetized with ether inhalation. The […] region was shaved and the external branch of the left common carotid artery was isolated by an incision from the lower mandible to the clavicle, followed by retracting the submaxillary gland (lateral) and several muscle bundles including the sternohyoideus (medial), sternomastoideus (lateral) and digastricus posterior belly (lateral). […] Lidocaine was applied to vasodilate during catheter introduction. Following an incision with iris scissors, a Fogarty arterial embolectomy catheter (No. 2F) was inserted into the external branch of the carotid, passed into the aortic arch and slightly withdrawn to assure inflation of the catheter within the common carotid artery. The catheter was inflated using approximately 900 mmHg air pressure, drawn distally and deflated. This was repeated three times to assure complete de-endothelialization of the common carotid. The catheter was removed, the artery ligated and the incision closed. Under these conditions the carotid is completely de-endothelialized.
Animals were sacrificed 14 days after ballooning in the same sequence as the catheterization. Thirty minutes before fixation the animals were injected with a 2.25% Evan's Blue dye solution (1.5 mg/kg iv) to differentiate between the neointimal and re-endothelialized areas. Areas of the carotid that have endothelial regrowth exclude the dye and appear white. The remaining areas that lack endothelium are stained blue. Whole body (beating heart) perfusion fixations (90-110 mmHg) were then performed on anesthetized (sodium pentobarbital, 50.0 mg/kg ip) animals using 200 ml of 1% glutaraldehyde in 0.15M sodium cacodylate buffer (pH 7.4, 37° C., 410 mOsm) followed by 400 ml of 3% glutaraldehyde in 0.15M sodium cacodylate. The entry site of the fixative was a puncture in the left ventricle, with efflux collected by vacuum suction from the right atrium. The thoracic aorta flow was restricted to optimize carotid perfusion. Successful fixation was judged by upper body rigidity and an absence of blood from the large arteries.
In a second experiment the procedure as described above was followed, with groups consisting of non-injected controls (n=8), animals treated with PY (n=5) or PN (n=8). Animals received drug for 2 days before catheterization and to the conclusion of the study (14 days). PY and PN were given at 1.0 mg/kg in 10% EtOH-water s.c. All animals (controls and drug-treated) were randomized into 3 groups for catheterization.
After each experiment the fixed carotid was removed and cut into 3 segments (distal, central, proximal). Tissue processing of only the central segment included 18 hours in 3% buffered glutaraldehyde, buffer rinsing, dehydration in an ascending ethanol series and infiltration with Spurr's resin. The samples were embedded with cross-sectional orientation so that sectioning (0.5 μm) would include blue areas which have not re-endothelialized and show continued proliferative responses. A two-step polychromatic stain utilizing toluidine blue and 1.0% basic fuchsin rendered histological differentiation to nuclear, cytoplasmic and extracellular connective matrix components.
All light microscopic histology slides were randomized, encoded and evaluated utilizing a Zeiss standard microscope and the Videoplan computerized image analyzer. Vessel measurements included maximum lesion height. […]

total calcium = assay: Rabbit intravenous experiment repeated, total calcium measured photometrically; conditions: intravenous infusion, photometric
Method: (§1) The effect of the compounds of the invention in lowering calcium levels is indicated in any standard animal test for hypercalcemic activity. In one test the compound is administered to rabbits (e.g. ca. 1 kg in weight) either as a suspension e.g. 0.1 to 5 mg (e.g. 0, 1 mg) per ml of solution (i.e. blood plasma with ca. 1-5% alcohol) and 0.1-5 mg/kg animal body weight by intravenous infusion (0.5 ml per hour) or orally e.g. 1 to 5 mg/kg animal body weight as a suspension in distilled water. A significant lowering of calcium ions is observed using standard measuring techniques for calcium ions in the blood, e.g. using a calcium ion selective electrode, or by photometric methods.
The intravenous experiment is repeated measuring total calcium photometrically. Drop in calcium levels over 11/2 hours=23%, over 21/2 hours=30%.

[2] = tested on: ionized calcium concentration in the blood; assay: Rabbit test: ionized calcium in blood by calcium ion selective electrode; conditions: PN alone
Method: as §1
One method for measuring calcium ion concentrations is as follows: […]
The concentration of ionized calcium in the blood is measured potentiometrically as follows: The difference in potential between the reference electrode and the Ca^2+ -selective electrode is measured differentially relative to the common electrode. The difference is amplified and the analogue signal produced by the amplifier is processed by a digital voltmeter and continuously recorded as a function of time, the difference in voltage being proportional to the Ca^2+ concentration. […]

[3] = Expt. 2, 1.0 mg/kg s.c. from 2 days before catheterization to day 14, controls 72.4 ± 17.4

Row | SMILES | Inhibition of lesion development ([1]; Expt. 1, 0.25 mg/kg/d) [%] | Maximal intimal height ([1]; Expt. 1, 0.25 mg/kg/day s.c., 14 days after ballooning, controls 84.9 ± 21.3) [μm] | Maximal intimal height [1, 3] [μm] | Inhibition of lesion development ([1]; Expt. 2, 1.0 mg/kg/d) [%] | Drop in calcium levels (total calcium) (total calcium; over 11/2 hours) [%] | Drop in calcium levels (total calcium) (total calcium; over 21/2 hours) [%] | Lowering of ionized calcium ([2]; intravenous infusion, 0.5 mg/0.5/over 1 hour) | Lowering of ionized calcium ([2]; oral 1 mg/kg) | Tolerability ([1]; rats, s.c., all doses used (0.25 and 1.0 mg/kg))
1 | COC(=O)C1=C(C)NC(C)=C(C(=O)OC(C)C)C1c1cccc2nonc12 (centres unmarked) [PN, 4-(2,1,3-benzoxadiazol-4yl)-1,4-dihydro-2,6-dimethyl-3-methoxycarbonyl-pyridine-5-carboxylic acid isopropyl ester] | 26 | 63.2 ± 19.9 | 38.9 ± 22.0 | 46 | 23 | 30 | 10-20% | 5-10% | 
2 | CCOC(=O)C1=C(C)NC(C)=C(C(=O)OCC)C1c1cccc2nonc12 [PY, 4-(2,1,3-benzoxadiazol-4-yl)-1,4-dihydro-2,6-dimethylpyridine-3,5-dicarboxylic acid diethyl ester] |  |  | 58.6 ± 18.1 | 19 |  |  |  |  | tolerated at all doses used

— patent US5260321A, “Use of 1,4-dihydropyridine derivatives and combinations thereof with calcitonins” (priority 1984, dated 1993)
